Drawing on US9949980B2, “Drugs to prevent HPV infection” (Wisconsin Alumni Research Foundation, priority 2008, dated 2018), this text covers viability and activity for 11 compounds.

Structures are written as SMILES. Like-named read-outs stand apart in the source and are kept apart here.

One data set can be described thus: in vitro. The settings on record: human, Viability (CelTiter Glow). As to the method: (§1) FIG. 1. High throughout screen (HTS) for identifying inhibitors of HPV infection. Shown is a schematic showing basic steps in the HTS. […] Briefly, HPV16 pseudoviruses containing the SEAP reporter genes are analyzed for their ability to infect as judged by the levels of secreted alkaline phosphatase in the tissue culture supernatant (light grey arrows). Cell viability was assessed in parallel on the same wells (dark grey arrows). In the specific HTS carried out in this study, the compounds were added at 3 uM/1% DMSO final concentration (black arrow) 4 hours prior to infection.
(§2) After incubation at 37° C. for 24 hrs, 35 μL of media was removed. […] Cells were incubated at 37° C. for 48 hrs. 2.5 μL of media was collected for SEAP assay using a PHOSPHA-LIGHT chemiluminescent alkaline phosphatase assay (Applied Biosystems). Cell viability was determined using the CellTiter Glo Luminescent Cell Viability Assay™ (Promega).

A further data set relates to HPV16 pseudoviruses. Briefly: microbe, parasite or virus in culture. The format is cell-based. The note with it: Human papillomavirus 16, HEK-293T, 48 h. As to the method: as §1, §2
The mark [1] stands for this setting: read-out: Infectivity (SEAP Activity), 3 μM HTS standard concentration, 293T cells, 48 hrs.
[2] abbreviates: read-out: Infectivity vs. viability, 3 μM HTS standard concentration, ratio infectivity/viability.

One may read the viability as a read-out of living cells in per cent, often relative to untreated cells. Take `Cc1ccnc(NS(=O)(=O)c2ccc(N3C(=O)c4ccccc4C3=O)cc2)n1` [Compound 5842264, 4-(1,3-dioxo-1,3-dihydro-2H-isoindol-2-yl)-N-(4-methyl-2-pyrimidinyl)benzenesulfonamide]: the viability at 52 h, 3 μM in “in vitro” amounted to 113%. Further, the activity at 3 µM in the data set with HPV16 pseudoviruses (setting [1]) came to 67%; with HPV16 pseudoviruses (setting [2]) it was 59.6%.

For `O=C1C(=Cc2cccc(O)c2)SC(=S)N1c1ccc(Cl)cc1` [Compound 5851060, 3-(4-chlorophenyl)-5-(3-hydroxybenzylidene)-2-thioxo-1,3-thiazolidin-4-one], the viability at 52 h, 3 μM in “in vitro” was 102%. The activity at 3 µM in the data set on HPV16 pseudoviruses (setting [1]) was 56.3%; with HPV16 pseudoviruses (setting [2]) it was 55.3%.

`CCOC(=O)[C@H]1C(=O)c2ccccc2C(=O)/C1=C/c1ccc(CC)cc1` [Compound 5860904, ethyl (2R,3E)-3-[(4-ethylphenyl)methylidene]-1,4-dioxonaphthalene-2-carboxylate]: the viability at 52 h, 3 μM in “in vitro” is 66%. Besides, the activity at 3 µM in the data set with HPV16 pseudoviruses (setting [1]) is 21.9%; in the data set on HPV16 pseudoviruses (setting [2]), 33.2%.

As for `Cc1ccc(S(=O)(=O)N(C)c2ccc(Br)cc2C(=O)c2ccccc2)cc1` [Compound 5867793, N-(2-benzoyl-4-bromophenyl)-N,4-dimethylbenzenesulfonamide], the viability at 52 h, 3 μM in the data set “in vitro” amounted to 95%. The activity at 3 µM was determined as 36.1% in the data set on HPV16 pseudoviruses (setting [1]) and 38% in the data set on HPV16 pseudoviruses (setting [2]).

`COc1cc(C=C2SC(=S)NC2=O)cc(Cl)c1OC(C)C` [Compound 5868253, 5-(3-chloro-4-isopropoxy-5-methoxybenzylidene)-2-thioxo-1,3-thiazolidin-4-one]: the viability at 52 h, 3 μM in “in vitro” worked out at 66.8%. For the same compound, the activity at 3 µM came out at 4.97% in the data set on HPV16 pseudoviruses (setting [1]) and 7.45% in the data set with HPV16 pseudoviruses (setting [2]).

Regarding `CC1=C(C(=O)Nc2ccc(C)c(Cl)c2)C(c2ccc(F)cc2)NC(=O)N1` (stereo not drawn) [Compound 5880766, N-(3-chloro-4-methylphenyl)-4-(4-fluorophenyl)-6-methyl-2-oxo-1,2,3,4-tetrahydro-5-pyrimidinecarboxamide], the viability at 52 h, 3 μM in the data set “in vitro” is 92%. Besides, the activity at 3 µM stood at 31.9% in the data set on HPV16 pseudoviruses (setting [1]) and 34.6% with HPV16 pseudoviruses (setting [2]).

As to `CSc1nsc(SC)c1NC(=O)OCC1([N+](=O)[O-])COC(C)(C)OC1` [Compound 5893711, (2,2-dimethyl-5-nitro-1,3-dioxan-5-yl)methyl [3,5-bis(methylthio)-4-isothiazolyl]carbamate], the viability at 52 h, 3 μM in “in vitro” worked out at 108%. For the same compound, the activity at 3 µM came out at 63.3% in the data set with HPV16 pseudoviruses (setting [1]) and 58.6% in the data set on HPV16 pseudoviruses (setting [2]).

Consider `COn1c(=O)c(=O)n(OC)c2ccccc21` [Compound 5896361, 1,4-dimethoxy-1,4-dihydro-2,3-quinoxalinedione], for which the viability at 52 h, 3 μM in the data set “in vitro” turned out to be 102%. Further, the activity at 3 µM in the data set with HPV16 pseudoviruses (setting [1]) is 60.8%; with HPV16 pseudoviruses (setting [2]), 59.3%.

On to `CC(=O)SCCC(=O)N1CCn2c3c(c4cc(C)ccc42)CCCC31` (stereo not drawn) [Compound 5915049, S-[3-(8-methyl-1,2,3a,4,5,6-hexahydro-3H-pyrazino[3,2,1-jk]carbazol-3-yl)-3-oxopropyl] ethanethioate], for which, in “in vitro”, the viability at 52 h, 3 μM was 102%. The activity at 3 µM in the data set on HPV16 pseudoviruses (setting [1]) came to 56.8%; with HPV16 pseudoviruses (setting [2]), 55.9%.

As to `CCCC(=O)NC(c1cccc([N+](=O)[O-])c1)c1ccc2cccnc2c1O` (stereo not drawn) [Compound 5926288, N-[(8-hydroxy-7-quinolinyl)(3-nitrophenyl)methyl]butanamide], in the data set “in vitro”, the viability at 52 h, 3 μM came out at 63.3%. In addition, the activity at 3 µM worked out at 1.52% with HPV16 pseudoviruses (setting [1]) and 2.4% in the data set on HPV16 pseudoviruses (setting [2]).

Take `COc1ccc(C(NC(=O)Cc2ccccc2)c2ccc3cccnc3c2O)cc1` (stereo not drawn) [Compound 5929288, N-[(8-hydroxy-7-quinolinyl)(4-methoxyphenyl)methyl]-2-phenylacetamide]: in the data set “in vitro”, the viability at 52 h, 3 μM was determined as 59.8%. Further, the activity at 3 µM turned out to be 1.44% with HPV16 pseudoviruses (setting [1]) and 2.41% in the data set with HPV16 pseudoviruses (setting [2]).
